Data taken from patent US11932624B2, “MDM2 degraders and uses thereof” (Kymera Therapeutics, Inc., priority 2020, dated 2024).

Tested on: RS411 cells
Assay: Cell Viability CTG Assay (CellTiter Glo) in RS411 cells
Type: cell-based
Details: Homo sapiens, RS4-11, 24 h, duration 1 day
Procedure, shortened: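 Read-out was CellTiter Glo luminescence, taken after 10 min at RT, following 1-4 days of incubation at 37 °C, 5% CO2. Cells were plated at 1000 per well with an 11-point, 3-fold series starting at 10 μM final in 0.2% DMSO. IC50 values are given as letter-code ranges.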

Row | IC50 [nM] | SMILES
1 | < 50 | Cn1c(=O)n(C2CCC(=O)NC2=O)c2ccc(CCCCCNC(=O)[C@@H]3CC[C@@H](NC(=O)[C@@H]4NC5(CCC(C)(C)CC5)[C@@]5(C(=O)Nc6cc(Cl)ccc65)[C@H]4c4cccc(Cl)c4F)CO3)cc21 (some centres unmarked) [I-98]
2 | < 50 | CN(CCCCCc1ccc2c(c1)n(C)c(=O)n2C1CCC(=O)NC1=O)Cc1ccc(NC(=O)[C@@H]2NC3(CCCCC3)[C@@]3(C(=O)Nc4cc(Cl)ccc43)[C@H]2c2cccc(Cl)c2F)cc1 (some centres unmarked) [I-99]
3 | < 50 | Cn1c(=O)n(C2CCC(=O)NC2=O)c2ccc(C#CC3CN(C(=O)[C@H]4C[C@H](NC(=O)[C@@H]5NC6(CCC(C)(C)CC6)[C@@]6(C(=O)Nc7cc(Cl)ccc76)[C@H]5c5cccc(Cl)c5F)C4)C3)cc21 (some centres unmarked) [I-100]
4 | < 50 | CN1[C@@H](C(=O)Nc2ccc(C(=O)NCCCCCc3ccc4c(c3)n(C)c(=O)n4C3CCC(=O)NC3=O)cc2)[C@H](c2cccc(Cl)c2F)[C@]2(C(=O)Nc3cc(Cl)ccc32)C12CCCCC2 (some centres unmarked) [I-101]
5 | < 50 | Cn1c(=O)n(C2CCC(=O)NC2=O)c2ccc(CCC3CCN(Cc4ccc(NC(=O)[C@@H]5NC6(CCCCC6)[C@@]6(C(=O)Nc7cc(Cl)ccc76)[C@H]5c5cccc(Cl)c5F)cc4)CC3)cc21 (some centres unmarked) [I-102]
6 | < 50 | Cn1c(=O)n(C2CCC(=O)NC2=O)c2cccc(C3CCN(C[C@H]4CC[C@H](NC(=O)[C@@H]5NC6(CCC(C)(C)CC6)[C@@]6(C(=O)Nc7cc(Cl)ccc76)[C@H]5c5cccc(Cl)c5F)CC4)CC3)c21 (some centres unmarked) [I-103]
7 | > 1000 | Cn1c(=O)n(C2CCC(=O)NC2=O)c2ccc(CCCCCNC(=O)[C@H]3CC[C@H](N(C)C(=O)[C@@H]4NC5(CCCCC5)[C@@]5(C(=O)Nc6cc(Cl)ccc65)[C@H]4c4cccc(Cl)c4F)CC3)cc21 (some centres unmarked) [I-105]
8 | < 50 | O=C1CCN(c2cnc3cc(C#CCOC4CCN(C(=O)c5ccc(NC(=O)[C@@H]6NC7(CCCCC7)[C@@]7(C(=O)Nc8cc(Cl)ccc87)[C@H]6c6cccc(Cl)c6F)cc5)CC4)ccn23)C(=O)N1 [I-106]
9 | < 50 | Cn1c(=O)n(C2CCC(=O)NC2=O)c2cccc(C3CCN(C[C@H]4CC[C@H](NC(=O)[C@@H]5NC6(CCCCC6)[C@@]6(C(=O)Nc7cc(Cl)ccc76)[C@H]5c5cccc(Cl)c5F)CC4)CC3)c21 (some centres unmarked) [I-109]
10 | < 50 | Cn1c(=O)n(C2CCC(=O)NC2=O)c2ccc(C#CCN3CCN(Cc4ccc(NC(=O)[C@@H]5NC6(CCCCC6)[C@@]6(C(=O)Nc7cc(Cl)ccc76)[C@H]5c5cccc(Cl)c5F)cc4)CC3)cc21 (some centres unmarked) [I-110]
11 | < 50 | Cn1c(=O)n(C2CCC(=O)NC2=O)c2cccc(CN3CCC(OC4CCN(C[C@H]5CC[C@H](NC(=O)[C@@H]6NC7(CCC(C)(C)CC7)[C@@]7(C(=O)Nc8cc(Cl)ccc87)[C@H]6c6cccc(Cl)c6F)CC5)CC4)CC3)c21 (some centres unmarked) [I-111]
12 | < 50 | Cn1c(=O)n(C2CCC(=O)NC2=O)c2cccc(CCC3CC4(CCN(C[C@H]5CC[C@H](NC(=O)[C@@H]6NC7(CCCCC7)[C@@]7(C(=O)Nc8cc(Cl)ccc87)[C@H]6c6cccc(Cl)c6F)CC5)CC4)C3)c21 (some centres unmarked) [I-112]
13 | < 50 | Cn1c(=O)n(C2CCC(=O)NC2=O)c2cccc(CN3CCC(OC4CCN(C[C@H]5CC[C@H](NC(=O)[C@@H]6NC7(CCCCC7)[C@@]7(C(=O)Nc8cc(Cl)ccc87)[C@H]6c6cccc(Cl)c6F)CC5)CC4)CC3)c21 (some centres unmarked) [I-113]
14 | < 50 | Cn1c(=O)n(C2CCC(=O)NC2=O)c2ccc(CCCN3CCN(C[C@H]4CC[C@H](NC(=O)[C@@H]5NC6(CCCCC6)[C@@]6(C(=O)Nc7cc(Cl)ccc76)[C@H]5c5cccc(Cl)c5F)CC4)CC3)cc21 (some centres unmarked) [I-114]
15 | < 50 | Cn1c(=O)n(C2CCC(=O)NC2=O)c2cccc(C3CCN(Cc4ccc(NC(=O)[C@@H]5NC6(CCCCC6)[C@@]6(C(=O)Nc7cc(Cl)ccc76)[C@H]5c5cccc(Cl)c5F)cc4)CC3)c21 (some centres unmarked) [I-115]
16 | > 1000 | Cn1c(=O)n(C2CCC(=O)NC2=O)c2cccc(C#CC3CCN(Cc4ccc(CNC(=O)[C@@H]5NC6(CCCCC6)[C@@]6(C(=O)Nc7cc(Cl)ccc76)[C@H]5c5cccc(Cl)c5F)cc4)CC3)c21 (some centres unmarked) [I-116]
17 | < 50 | Cn1c(=O)n(C2CCC(=O)NC2=O)c2ccc(CN3CCC(OC4CCN(C[C@H]5CC[C@H](NC(=O)[C@@H]6NC7(CCCCC7)[C@@]7(C(=O)Nc8cc(Cl)ccc87)[C@H]6c6cccc(Cl)c6F)CC5)CC4)CC3)cc21 (some centres unmarked) [I-117]
